# Assay results as given in ChEMBL document CHEMBL2440046, “Anabaseine analogues as modulators of nicotinic acetylcholine receptor” (ACS Med Chem Lett, 2013).
# Experiments:
# [1] = biological target: Neuronal acetylcholine receptor subunit alpha-7 (Rattus norvegicus, UniProt Q05941); assay: Displacement of [125I]-alpha-bungarotoxin from Sprague-Dawley rat brain alpha7 nAChR after 3 hrs by liquid scintillation counting analysis
# [2] = biological target: Neuronal acetylcholine receptor; alpha4/beta2 (Rattus norvegicus, UniProt P09483+P12390); assay: Displacement of [3H]-cytisine from Sprague-Dawley rat brain alpha4beta2 nAChR after 4 hrs by liquid scintillation counting analysis
# Sequence of Neuronal acetylcholine receptor; alpha4/beta2 (P09483 whole entry): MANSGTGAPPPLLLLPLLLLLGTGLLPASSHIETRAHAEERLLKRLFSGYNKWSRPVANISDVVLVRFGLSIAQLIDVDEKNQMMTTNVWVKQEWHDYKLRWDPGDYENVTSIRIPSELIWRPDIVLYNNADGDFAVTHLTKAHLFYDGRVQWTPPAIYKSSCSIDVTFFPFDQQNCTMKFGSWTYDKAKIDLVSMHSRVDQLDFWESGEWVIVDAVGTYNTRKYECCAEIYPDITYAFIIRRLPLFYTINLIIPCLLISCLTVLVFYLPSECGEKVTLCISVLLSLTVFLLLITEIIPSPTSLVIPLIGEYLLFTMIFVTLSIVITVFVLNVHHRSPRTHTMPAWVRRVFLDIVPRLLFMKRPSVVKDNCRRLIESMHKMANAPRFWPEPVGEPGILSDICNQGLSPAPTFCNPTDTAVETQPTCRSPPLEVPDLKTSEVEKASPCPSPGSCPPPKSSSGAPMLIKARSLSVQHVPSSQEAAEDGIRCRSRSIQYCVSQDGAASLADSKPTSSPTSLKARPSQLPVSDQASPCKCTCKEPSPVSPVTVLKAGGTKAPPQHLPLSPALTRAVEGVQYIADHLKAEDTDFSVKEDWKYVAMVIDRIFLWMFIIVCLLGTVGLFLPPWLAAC
# Sequence of Neuronal acetylcholine receptor; alpha4/beta2 (P12390 whole entry): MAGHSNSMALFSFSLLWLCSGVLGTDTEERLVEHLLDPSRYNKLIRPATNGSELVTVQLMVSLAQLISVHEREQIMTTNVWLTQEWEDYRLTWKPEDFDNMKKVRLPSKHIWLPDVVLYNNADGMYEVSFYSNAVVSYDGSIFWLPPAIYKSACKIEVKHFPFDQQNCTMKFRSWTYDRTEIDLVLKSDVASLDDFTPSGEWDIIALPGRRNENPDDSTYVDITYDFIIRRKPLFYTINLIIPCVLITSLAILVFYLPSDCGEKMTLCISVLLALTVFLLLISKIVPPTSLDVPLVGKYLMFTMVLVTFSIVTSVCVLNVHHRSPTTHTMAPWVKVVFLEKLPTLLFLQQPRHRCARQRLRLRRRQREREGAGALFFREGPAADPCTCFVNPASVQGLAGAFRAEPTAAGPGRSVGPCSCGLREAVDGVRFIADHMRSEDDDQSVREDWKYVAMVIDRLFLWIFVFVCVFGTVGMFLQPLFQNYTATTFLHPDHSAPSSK
# Sequence of Neuronal acetylcholine receptor subunit alpha-7 (Q05941 whole entry): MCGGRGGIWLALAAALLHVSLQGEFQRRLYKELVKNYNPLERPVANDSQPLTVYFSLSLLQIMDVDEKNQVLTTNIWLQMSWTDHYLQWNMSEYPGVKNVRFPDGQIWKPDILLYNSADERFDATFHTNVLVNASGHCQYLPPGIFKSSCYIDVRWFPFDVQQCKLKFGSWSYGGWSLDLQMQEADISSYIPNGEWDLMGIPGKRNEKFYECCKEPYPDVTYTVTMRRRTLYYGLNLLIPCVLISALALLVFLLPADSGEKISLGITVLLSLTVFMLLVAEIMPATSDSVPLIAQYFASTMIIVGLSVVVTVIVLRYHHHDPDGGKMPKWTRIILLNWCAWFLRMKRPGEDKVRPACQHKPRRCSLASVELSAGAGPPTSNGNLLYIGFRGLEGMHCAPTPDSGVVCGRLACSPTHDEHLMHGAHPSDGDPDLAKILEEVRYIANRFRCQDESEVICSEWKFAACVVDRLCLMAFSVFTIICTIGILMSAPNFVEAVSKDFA
SMILES,Ki [1] [nM],Ki [2] [nM]
COc1ccc(CC2C(c3cccnc3)=N[C@H]3CC[C@@H]2C3)c(OC)c1 (stereo partly drawn),16.4,219
COc1ccc(CC2C(c3cccnc3)=N[C@@H]3CC[C@H]2C3)c(OC)c1 (stereo partly drawn),4400,347
Oc1ccc(CC2C(c3cccnc3)=N[C@H]3CC[C@@H]2C3)cc1 (stereo partly drawn),34.1,72.5
Nc1ccc(CC2C(c3cccnc3)=N[C@H]3CC[C@@H]2C3)cc1 (stereo partly drawn),3.43,34.1
